Data as given in PMC12366332 (Applied and Environmental Microbiology, 2025).
Like-named read-outs stand apart in the source and are kept apart here. Square brackets hold non-standard residues; d marks the D form. Ends that are not written are not given here. Peptide text beside a SMILES is read from it. * marks the point of attachment. Hexanoyl = CCCCCC(=O)*; Butyryl = CCCC(=O)*

Legend:
E. coli 0111:B4 LPS = type: biochemical, Escherichia coli
horse erythrocytes = details: red cells of horse, 50 µM
[1] = system: X. fastidiosa subsp. fastidiosa IVIA 5387.2; details: for EC50: 3 h
tobacco leaves = details: 150 µM; after 48 h

Compound	LPS neutralization Ratio (treatment/NTC) (E. coli 0111:B4 LPS)	Hemolytic activity (%) (horse erythrocytes)	Bactericidal activity Level ([1]; 50 µM)	Bactericidal activity Reduction in viability (Log N0/N) ([1]; 50 µM)	Phytotoxicity: diameter of the lesion (tobacco leaves)	Bactericidal activity Reduction in viability (Log N0/N) ([1]; 3.1 µM)	Bactericidal activity Reduction in viability (Log N0/N) ([1]; 12.5 µM)	EC50 [1]
RVQGRWKVRASFFK-NH2 [LBP-14, RVQGRWKVRASFFK-NH2, reference compound]	0,23	7%	Low (key: Very High: very high bactericidal activity (>2.5 log); High: high bactericidal activity (between 2.0 and 2.5 log); Moderate: a moderate activity (between 1.5 and 2.0 log); Low: low active (<1.5 log))	0,51 Log N0/N	1 mm			
YVKLWRMIKFIR-NH2 [YW12D, YVKLWRMIKFIR-NH2, reference compound]	0,21	12%	Low (key: Very High: very high bactericidal activity (>2.5 log); High: high bactericidal activity (between 2.0 and 2.5 log); Moderate: a moderate activity (between 1.5 and 2.0 log); Low: low active (<1.5 log))	0,59 Log N0/N	1 mm			
CCCC(=O)NCCCC[C@H](NC(=O)[C@H](CCCCN)NC(=O)[C@H](CC(C)C)NC(=O)[C@@H](NC(=O)[C@H](CCCCN)NC(=O)[C@H](CCCCN)NC(=O)[C@H](Cc1c[nH]cn1)NC(=O)[C@H](CC(C)C)NC(=O)[C@H](CCCCN)NC(=O)[C@H](CCCCN)NC(C)=O)[C@@H](C)CC)C(=O)N[C@@H](CC(C)C)C(N)=O [BP501, Ac-KKLHKKILKK(COC3H7)L-NH2] (Ac-KKLHKKILKK(Butyryl)L-NH2)	0,71	2%	Low (key: Very High: very high bactericidal activity (>2.5 log); High: high bactericidal activity (between 2.0 and 2.5 log); Moderate: a moderate activity (between 1.5 and 2.0 log); Low: low active (<1.5 log))	0,30 Log N0/N	0 mm			
NIKISGKWKAQKRFLK-NH2 [BPI(84-99), NIKISGKWKAQKRFLK-NH2, reference compound]	0,29	7%	Low (key: Very High: very high bactericidal activity (>2.5 log); High: high bactericidal activity (between 2.0 and 2.5 log); Moderate: a moderate activity (between 1.5 and 2.0 log); Low: low active (<1.5 log))	0,84 Log N0/N	1 mm			
CCCC(=O)NCCCC[C@H](NC(=O)[C@H](CCCCN)NC(=O)[C@H](CCCCN)NC(C)=O)C(=O)N[C@H](Cc1ccccc1)C(=O)N[C@@H](CCCCN)C(=O)N[C@@H](CCCCN)C(=O)N[C@@H](CCCCN)C(=O)N[C@@H](CC(C)C)C(=O)N[C@@H](CCCCN)C(=O)N[C@@H](Cc1ccc(O)cc1)C(=O)N[C@@H](CC(C)C)C(N)=O [BP546, Ac-KKK(COC3H7)fKKKLKYL-NH2] (Ac-KKK(Butyryl)[dF]KKKLKYL-NH2)	0,73	0%	Low (key: Very High: very high bactericidal activity (>2.5 log); High: high bactericidal activity (between 2.0 and 2.5 log); Moderate: a moderate activity (between 1.5 and 2.0 log); Low: low active (<1.5 log))	0,34 Log N0/N	0 mm			
CCCC(=O)NCCCC[C@@H](NC(=O)[C@H](CC(C)C)NC(=O)[C@H](CCCCN)NC(=O)[C@H](CCCCN)NC(C)=O)C(=O)N[C@@H](CCCCN)C(=O)N[C@@H](CCCCN)C(=O)N[C@H](C(=O)N[C@@H](CC(C)C)C(=O)N[C@@H](CCCCN)C(=O)N[C@@H](Cc1ccc(O)cc1)C(=O)N[C@@H](CC(C)C)C(N)=O)[C@@H](C)CC [BP550, Ac-KKLk(COC3H7)KKILKYL-NH2]	1,09	3%	Low (key: Very High: very high bactericidal activity (>2.5 log); High: high bactericidal activity (between 2.0 and 2.5 log); Moderate: a moderate activity (between 1.5 and 2.0 log); Low: low active (<1.5 log))	0,00 Log N0/N	5 mm			
CCCC(=O)NCCCC[C@H](NC(=O)[C@@H](Cc1ccccc1)NC(=O)[C@H](CC(C)C)NC(=O)[C@H](CCCCN)NC(=O)[C@H](CCCCN)NC(C)=O)C(=O)N[C@@H](CCCCN)C(=O)N[C@H](C(=O)N[C@@H](CC(C)C)C(=O)N[C@@H](CCCCN)C(=O)N[C@@H](Cc1ccc(O)cc1)C(=O)N[C@@H](CC(C)C)C(N)=O)[C@@H](C)CC [BP498, Ac-KKLfK(COC3H7)KILKYL-NH2]	0,40	9%	Moderate (key: Very High: very high bactericidal activity (>2.5 log); High: high bactericidal activity (between 2.0 and 2.5 log); Moderate: a moderate activity (between 1.5 and 2.0 log); Low: low active (<1.5 log))	1,58 Log N0/N	7 mm			
CCCCCC(=O)NCCCC[C@H](NC(=O)[C@H](CCCCN)NC(=O)[C@H](CCCCN)NC(=O)[C@@H](Cc1ccccc1)NC(=O)[C@H](CC(C)C)NC(=O)[C@H](CCCCN)NC(=O)[C@H](CCCCN)NC(C)=O)C(=O)N[C@@H](CC(C)C)C(=O)N[C@@H](CCCCN)C(=O)N[C@@H](Cc1ccc(O)cc1)C(=O)N[C@@H](CC(C)C)C(N)=O [BP494, Ac-KKLfKKK(COC5H11)LKYL-NH2]	0,51	0%	Low (key: Very High: very high bactericidal activity (>2.5 log); High: high bactericidal activity (between 2.0 and 2.5 log); Moderate: a moderate activity (between 1.5 and 2.0 log); Low: low active (<1.5 log))	1,21 Log N0/N	6 mm			
CCCC(=O)NCCCC[C@H](NC(=O)[C@H](CCCCN)NC(=O)[C@H](CCCCN)NC(C)=O)C(=O)N[C@H](Cc1ccccc1)C(=O)N[C@@H](CCCCN)C(=O)N[C@@H](CCCCN)C(=O)N[C@H](C(=O)N[C@@H](CC(C)C)C(=O)N[C@@H](CCCCN)C(=O)N[C@@H](Cc1ccc(O)cc1)C(=O)N[C@@H](CC(C)C)C(N)=O)[C@@H](C)CC [BP549, Ac-KKK(COC3H7)fKKILKYL-NH2]	1,10	1%	Low (key: Very High: very high bactericidal activity (>2.5 log); High: high bactericidal activity (between 2.0 and 2.5 log); Moderate: a moderate activity (between 1.5 and 2.0 log); Low: low active (<1.5 log))	1,19 Log N0/N	5 mm			
CCCCCC(=O)NCCCC[C@H](NC(=O)[C@H](CCCCN)NC(=O)[C@H](CC(C)C)NC(=O)[C@@H](NC(=O)[C@H](CCCCN)NC(=O)[C@H](CCCCN)NC(=O)[C@H](Cc1ccccc1)NC(=O)[C@H](CC(C)C)NC(=O)[C@H](CCCCN)NC(=O)[C@H](CCCCN)NC(C)=O)[C@@H](C)CC)C(=O)N[C@@H](CC(C)C)C(N)=O [BP377, Ac-KKLFKKILKK(COC5H11)L-NH2] (Ac-KKLFKKILKK(Hexanoyl)L-NH2)		71%	Very High (key: Very High: very high bactericidal activity (>2.5 log); High: high bactericidal activity (between 2.0 and 2.5 log); Moderate: a moderate activity (between 1.5 and 2.0 log); Low: low active (<1.5 log))		11 mm	1,34 Log N0/N	1,88 Log N0/N	3.67 µM
CCCC(=O)NCCCC[C@@H](NC(=O)[C@H](CC(C)C)NC(=O)[C@H](CCCCN)NC(=O)[C@H](CCCCN)NC(C)=O)C(=O)N[C@@H](CCCCN)C(=O)N[C@@H](CCCCN)C(=O)N[C@H](C(=O)N[C@@H](CC(C)C)C(=O)N[C@H](C(=O)N[C@@H](Cc1ccc(O)cc1)C(=O)N[C@@H](CC(C)C)C(N)=O)[C@@H](C)CC)[C@@H](C)CC [BP547, Ac-KKLk(COC3H7)KKILIYL-NH2]	0,99	0%	Low (key: Very High: very high bactericidal activity (>2.5 log); High: high bactericidal activity (between 2.0 and 2.5 log); Moderate: a moderate activity (between 1.5 and 2.0 log); Low: low active (<1.5 log))	0,05 Log N0/N	2 mm			
CCCC(=O)NCCCC[C@H](NC(=O)[C@@H](NC(=O)[C@H](CCCCN)NC(=O)[C@H](CCCCN)NC(=O)[C@@H](Cc1ccccc1)NC(=O)[C@H](CC(C)C)NC(=O)[C@H](CCCCN)NC(=O)[C@H](CCCCN)NC(C)=O)[C@@H](C)CC)C(=O)N[C@@H](CCCCN)C(=O)N[C@@H](Cc1ccc(O)cc1)C(=O)N[C@@H](CC(C)C)C(N)=O [BP474, Ac-KKLfKKIK(COC3H7)KYL-NH2]		0%	Moderate (key: Very High: very high bactericidal activity (>2.5 log); High: high bactericidal activity (between 2.0 and 2.5 log); Moderate: a moderate activity (between 1.5 and 2.0 log); Low: low active (<1.5 log))	1,76 Log N0/N	2 mm			
CCCC(=O)NCCCC[C@H](NC(=O)[C@H](CCCCN)NC(=O)[C@@H](Cc1ccccc1)NC(=O)[C@H](CC(C)C)NC(=O)[C@H](CCCCN)NC(=O)[C@H](CCCCN)NC(C)=O)C(=O)N[C@H](C(=O)N[C@@H](CC(C)C)C(=O)N[C@@H](CCCCN)C(=O)N[C@@H](Cc1ccc(O)cc1)C(=O)N[C@@H](CC(C)C)C(N)=O)[C@@H](C)CC [BP473, Ac-KKLfKK(COC3H7)ILKYL-NH2]		7%	Very High (key: Very High: very high bactericidal activity (>2.5 log); High: high bactericidal activity (between 2.0 and 2.5 log); Moderate: a moderate activity (between 1.5 and 2.0 log); Low: low active (<1.5 log))		4 mm	0,64 Log N0/N		4.75 µM
